Patent US20250197442A1, “Peptide Synthesis in Aqueous Solution” (priority 2023, published 2025)

Conditions: for amount of Tween 80 required to dissolve the Fmoc protected amino acid, relative to its amount: aqueous solution, room temperature; for solubility in aqueous solutions: without the dissolving procedure
Procedure: A process for dissolving Fmoc-AA in Aqueous Solution was developed and it is summarized as follows (FIG. 9). Firstly, a non-ionic surfactant is dissolved in a small portion of a water-miscible organic solvent, creating Solution A. Secondly, FAA is dissolved in another small portion of a water-miscible organic solvent, creating Solution B. These two solutions, Solution A and Solution B, are thoroughly mixed to create a homogeneous mixture. This mixture is then added vigorously to an aqueous solvent.
To enable the utilization of Fmoc-AA as a building block in an aqueous solution, a specialized procedure has been developed to render Fmoc-AA soluble in aqueous solvents. The present invention devised a method to render Fmoc-AA soluble in water. First, none ionic surfactant is dissolved in a small amount of water-mixable organic solution, creating solution A, and then secondly, a Fmoc-AA is dissolved in a small amount of water-mixable organic solvent to create solution B, Solution A is thoroughly mixed with Solution B. The resulting mixture is then vigorously added to an aqueous solution. Fmoc-AA aqueous solution is obtained (FIG. 9),
4 grams of Tween 80 are added to 2 ml of DMSO to create solution A. and 1 grams of Fmoc-AA are added to 5 ml of DMSO to create solution B, solution A and solution B are mixed thoroughly, and then the resulting mixture is added to 88 ml of water to obtain a 1% concentration of Fmoc-AA in aqueous solution.
• Step 1: Dissolve 1.08 grams of Fmoc-Gly in 6.13 ml of DMSO solvent. Next, add 6.00 milliliters (mL) of a 70% Tween 80 in DMSO solution to the Fmoc-Gly DMSO solution. • Step 2: Pour this mixture into 87 mL of deionized (DI) water.
Dissolve 0.18 grams of Fmoc-Phe in 1.98 DMSO of solvent. Next, add 2.26 milliliters (mL) of a 70% Tween 80 in DMSO solution to Fmoc-Phe solution.
Transfer this mixture into 20.38 mL of deionized water.
Gradually, add 70% T dropwise until the solution becomes clear.
This process yields a solution containing 0.72% Fmoc-Phe in an aqueous solution with 10.80% DMSO.

| Structure (SMILES) | amount of Tween 80 required to dissolve the Fmoc protected amino acid, relative to its amount | solubility in aqueous solutions | effect of raising the temperature on solubility in aqueous solution (raised temperature) |
| --- | --- | --- | --- |
| O=C(O)CNC(=O)OCC1c2ccccc2-c2ccccc21 [Fmoc-Gly, Fmoc-Glycine] | approximately four times | poor solubility | – |
| O=C(N[C@@H](Cc1ccccc1)C(=O)O)OCC1c2ccccc2-c2ccccc21 [Fmoc-Phe, Fmoc-Phenylalanine] | approximately eight times | poor solubility | significantly increase the solubility |
